PubChem BioAssay AID1963840 (Molecular Pharmacology Branch, DTP, NCI, 2024)

Test system: 695427-040-R-J1-PDC complex spheroid viability
Test: Anticancer human tumor 695427-040-R-J1-PDC patient-derived colon adenocarcinoma cell line growth inhibition [POLQ]
Settings: for IC50: curve of first compound; for viability, T/C: stronger effect = lower value
Protocol: Multicellular complex tumor spheroid response to Polymerase (POL) inhibitors (novobiocin, ART-558, RP6685) in combination with a variety of drugs and investigational agents in selected tumor cell lines
The POL inhibitors (novobiocin, ART-558, and RP6685) were evaluated both individually and in combination with standard of care and investigational anticancer small molecules within a complex spheroid model of solid tumors. . Complex spheroids include a stromal component modeled by human endothelial cells (HUVEC) and fibroblasts modeled by human mesenchymal stem cells (MSCs). The concentration ranges selected for each drug and investigational agent were based upon clinically achievable concentrations if the clinical Cmax of the agent was known.
Compounds. The drugs and investigational agents: novobiocin (NSC847541), ART-558 (NSC835418), RP-6685 (NSC848927), peposertib (NSC802822), ceralasertib (NSC780249), elimusertib (NSC800525), camonsertib (NSC841442), AZD-1390 (NSC803789), olaparib (NSC753686), talazoparib (NSC767125), rucaparib (NSC756644), sotorasib (NSC818433), MRTX-1133 (NSC836407), SN-38 (NSC673596), topotecan (NSC609699), epotoside (NSC141540), doxorubicin (NSC123127), gemcitabine (NSC613327), 5-fluorouracil (NSC19893), paclitaxel (NSC125973), vemurafenib (NSC761431), MSA-2 (NSC828583), SN-011 (NSC837082), adavosertib (NSC754352), prexasertib (NSC758257), carboplatin (NSC241240) and oxaliplatin (NSC266046), were obtained from the National Cancer Institute (NCI) Developmental Therapeutics Program Chemical Repository (21). The FDA-approved anticancer drug set is available from the Developmental Therapeutics Program at https://dtp.cancer.gov/organization/dscb/obtaining/. […] The stock solutions were prepared in dimethyl sulfoxide (DMSO, Sigma-Aldrich, St. Louis, MO, cat. D2650), except for the platinum compounds which were prepared in saline (Quality Biological, Gaithersburg, MD, cat. 114-055-101), at 800-fold the tested concentration and stored at -70 degrees C prior to their use. All drugs and investigational agents were tested over a range starting from a high concentration at or near the clinical Cmax and decreasing in half-log increments. If the clinical Cmax for an agent had not been determined, the highest concentration tested was 10 microM, except for SN-38, which was tested at a high concentration of 1 microM.
Cell Culture. All cells were maintained in an incubator at 37 degrees C and 5% CO2 with 95% humidity. The PDC lines were cultured according to standard operating procedures established by the NCI PDMR (https://pdmr.cancer.gov). Table 3 of the manuscript, lists the cell lines along with the number of the three cell types plated to form the mct-spheroids and media for tumor cell growth. After thawing, all PDC lines, except 997537-175-T-J1-PDC and 415267-285-R-J2-PDC, were cultured in Matrigel-coated flasks prepared with a working solution of 1X Ham's F-12 nutrient mix, without supplementation (Thermo Fisher Scientific, cat. 11765054), 100 U/mL penicillin-streptomycin (Thermo Fisher Scientific, cat. 15140122), and 2.5% Matrigel (Corning Inc., Corning, NY, cat. 354248) for the first three passages. The two PDC lines 997537-175-T-J1-PDC and 415267-285-R-J2-PDC were cultured on uncoated flasks. The 857933-349-R-J2-PDC line was cultured in 6C/Colon 1B media containing advanced DMEM/F-12 (Thermo Fisher Scientific, cat. 12634028), 10 mM HEPES (Thermo Fisher Scientific, cat. 15630080), 1X GlutaMAX supplement (Thermo Fisher Scientific, cat. 35050061), 0.1 mg/mL primocin (InvivoGen, San Diego, CA, cat. ant-pm-2), 10% defined fetal bovine serum, heat inactivated (HyClone Laboratories Inc., Logan, UT, cat. SH30070.03HI), 50% L-WRN conditioned media (ATCC, cat. CRL-3276), 1.25 mM N-Acetyl-L-cysteine (Sigma-Aldrich, cat. A9165), 10 mM nicotinamide (Sigma-Aldrich, cat. N0636), 1X B-27 supplement (Thermo Fisher Scientific, cat. 17504044), 1X N-2 supplement (Thermo Fisher Scientific, cat. […]

[1] = second compound 0.0316 µM, first compound 0.0316 µM
[2] = second compound 0.0316 µM, first compound 0.1 µM
[3] = second compound 0.0316 µM, first compound 0.316 µM
[4] = second compound 0.0316 µM, first compound 1 µM
[5] = second compound 0.1 µM, first compound 0.0316 µM
[6] = second compound 0.1 µM, first compound 0.1 µM
[7] = second compound 0.1 µM, first compound 0.316 µM
[8] = second compound 0.1 µM, first compound 1 µM
[9] = second compound 0.316 µM, first compound 0.0316 µM
[10] = second compound 0.316 µM, first compound 0.1 µM
[11] = second compound 0.316 µM, first compound 0.316 µM
[12] = second compound 0.316 µM, first compound 1 µM
[13] = second compound 1 µM, first compound 0.0316 µM
[14] = second compound 1 µM, first compound 0.1 µM
[15] = second compound 1 µM, first compound 0.316 µM
[16] = second compound 1 µM, first compound 1 µM
[17] = second compound 3.16 µM, first compound 0.0316 µM
[18] = second compound 3.16 µM, first compound 0.1 µM
[19] = second compound 3.16 µM, first compound 0.316 µM
[20] = second compound 3.16 µM, first compound 1 µM
[21] = second compound 10 µM, first compound 0.0316 µM
[22] = second compound 10 µM, first compound 0.1 µM
[23] = second compound 10 µM, first compound 0.316 µM
[24] = second compound 10 µM, first compound 1 µM
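Note: spheroids exposed to compounds for seven days.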
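Throughout, for viability, T/C: 100% = DMSO vehicle control viability.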

## CCCS(=O)(=O)Nc1ccc(F)c(C(=O)c2c[nH]c3ncc(-c4ccc(Cl)cc4)cc23)c1F + Cc1cccc(N(C)C(=O)C2C(O)CCN2c2nc(C)cc(C(F)(F)F)c2C#N)c1
Second compound 0.0316 µM
  IC50: > 10 µM
Second compound 0.1 µM
  IC50: > 10 µM
Second compound 0.316 µM
  IC50: > 10 µM
Second compound 1 µM
  IC50: > 10 µM
Second compound 3.16 µM
  IC50: > 10 µM
Second compound 10 µM
  IC50: > 10 µM
[1]
  viability, T/C: 113%
[2]
  viability, T/C: 105%
[3]
  viability, T/C: 102%
[4]
  viability, T/C: 100%
Second compound 0.0316 µM, first compound 3.16 µM
  viability, T/C: 116%
Second compound 0.0316 µM, first compound 10 µM
  viability, T/C: 86.8%
[5]
  viability, T/C: 129%
[6]
  viability, T/C: 111%
[7]
  viability, T/C: 104%
[8]
  viability, T/C: 109%
Second compound 0.1 µM, first compound 3.16 µM
  viability, T/C: 111%
Second compound 0.1 µM, first compound 10 µM
  viability, T/C: 82.6%
[9]
  viability, T/C: 101%
[10]
  viability, T/C: 118%
[11]
  viability, T/C: 96.3%
[12]
  viability, T/C: 109%
Second compound 0.316 µM, first compound 3.16 µM
  viability, T/C: 123%
Second compound 0.316 µM, first compound 10 µM
  viability, T/C: 77.5%
[13]
  viability, T/C: 112%
[14]
  viability, T/C: 111%
[15]
  viability, T/C: 102%
[16]
  viability, T/C: 108%
Second compound 1 µM, first compound 3.16 µM
  viability, T/C: 127%
Second compound 1 µM, first compound 10 µM
  viability, T/C: 73.2%
[17]
  viability, T/C: 100%
[18]
  viability, T/C: 104%
[19]
  viability, T/C: 103%
[20]
  viability, T/C: 114%
Second compound 3.16 µM, first compound 3.16 µM
  viability, T/C: 112%
Second compound 3.16 µM, first compound 10 µM
  viability, T/C: 104%
[21]
  viability, T/C: 101%
[22]
  viability, T/C: 100%
[23]
  viability, T/C: 92%
[24]
  viability, T/C: 98.8%
Second compound 10 µM, first compound 3.16 µM
  viability, T/C: 108%
Second compound 10 µM, first compound 10 µM
  viability, T/C: 77.9%

## COc1cccc(OCCCN)c1-c1cc(Nc2cnc(C#N)cn2)n[nH]1 + COC1C(OC(N)=O)C(O)C(Oc2ccc3c(O)c(NC(=O)c4ccc(O)c(CC=C(C)C)c4)c(=O)oc3c2C)OC1(C)C
Second compound 0.0316 µM
  IC50: 0.386 µM
Second compound 0.1 µM
  IC50: 0.535 µM
Second compound 0.316 µM
  IC50: 0.46 µM
Second compound 1 µM
  IC50: 0.391 µM
Second compound 3.16 µM
  IC50: 0.449 µM
Second compound 10 µM
  IC50: 0.465 µM
Second compound 0.0316 µM, first compound 0.00316 µM
  viability, T/C: 103%
Second compound 0.0316 µM, first compound 0.01 µM
  viability, T/C: 94.2%
[1]
  viability, T/C: 81.1%
[2]
  viability, T/C: 70.2%
[3]
  viability, T/C: 50.3%
[4]
  viability, T/C: 39.7%
Second compound 0.1 µM, first compound 0.00316 µM
  viability, T/C: 109%
Second compound 0.1 µM, first compound 0.01 µM
  viability, T/C: 84.2%
[5]
  viability, T/C: 81%
[6]
  viability, T/C: 69.7%
[7]
  viability, T/C: 56%
[8]
  viability, T/C: 42.2%
Second compound 0.316 µM, first compound 0.00316 µM
  viability, T/C: 101%
Second compound 0.316 µM, first compound 0.01 µM
  viability, T/C: 93%
[9]
  viability, T/C: 85%
[10]
  viability, T/C: 73.1%
[11]
  viability, T/C: 54%
[12]
  viability, T/C: 39.2%
Second compound 1 µM, first compound 0.00316 µM
  viability, T/C: 102%
Second compound 1 µM, first compound 0.01 µM
  viability, T/C: 93.7%
[13]
  viability, T/C: 83.7%
[14]
  viability, T/C: 66.3%
[15]
  viability, T/C: 53.9%
[16]
  viability, T/C: 38.1%
Second compound 3.16 µM, first compound 0.00316 µM
  viability, T/C: 107%
Second compound 3.16 µM, first compound 0.01 µM
  viability, T/C: 95.1%
[17]
  viability, T/C: 86.3%
[18]
  viability, T/C: 67.2%
[19]
  viability, T/C: 56.3%
[20]
  viability, T/C: 38.7%
Second compound 10 µM, first compound 0.00316 µM
  viability, T/C: 100%
Second compound 10 µM, first compound 0.01 µM
  viability, T/C: 84.9%
[21]
  viability, T/C: 81.1%
[22]
  viability, T/C: 68.9%
[23]
  viability, T/C: 55.2%
[24]
  viability, T/C: 39.8%
